# Laboratory results published in patent US6965021B2, “Feedback-resistant pyruvate carboxylase gene from corynebacterium” (Archer-Daniels-Midland Company, priority 2000, dated 2005).
# Read-outs that look alike come from different tables or passages of the source.
# What was measured:
# [1] = biological target: Corynebacterium glutamicum NRRL B-11474 (BF100) pyruvate carboxylase, feedback-resistant variant (M1V, E153D, A182S, A206S, H227R, A455G, D1120E), SEQ ID NO:2 (Corynebacterium glutamicum, UniProt H7C7K2, A182S/A206S/A455G/D1120E/E153D/H227R/M1V)
# Method: (§1) Pyruvate carboxylate and phosphoenol pyruvate carboxylate assays were performed with permeabilized cells prepared by the following method. Log phase cells were harvested by centrifugation for 10 min at 5000×g at 4° C. and washed with 20 ml of the ice-cold washing buffer (50 mM Tris/HCl [pH 6.3] containing 50 mM NaCl). The cell pellet was resuspended in an ice-cold Hepes buffer (100 mM Hepes [pH 7.5] containing 20% Glycerol) to reach a final concentration of 25 g dry cell weight/liter. Resuspended cells were permeabilized by adding 30 μl of a 10% Hexadecyltrimethyl-ammonium bromide (CTAB) (w/v) solution to 1 ml of cells to give a final concentration of 0.3% (CTAB)(v/v).
# The reaction was started at 30° C. with the addition of 10 μl of the permeabilized cell suspension, and the formation of DTNB-thiophenolate was followed over time at 412 nm. Relevant standards and controls were carried out in the same manner.
# To account for the intrinsic loss of OAA during the experiment, a continuous assay was carried out by coupling the two-reaction assay to a one-reaction assay in presence of an excess of citrate synthase. The amount of permeabilized cells added in the assay was optimized to obtain a detectable activity, with the lowest possible background absorbency due to the presence of cells.
# Pyruvate carboxylase activity was determined as a function of various concentrations of its substrates: pyruvate, bicarbonate and ATP (FIG. 3). Based on the data generated, the affinity constants of pyruvate carboxylase for its substrates were determined (Table 2).
# To determine the effect of aspartate on the activity of pyruvate carboxylase, aspartate was added at different concentrations in the spectrophotometer cuvette and enzyme activities were measured. As a comparison, the same experiment was carried out with PEPC in ATCC 21253 (FIG. 5).
# Pyruvate carboxylase activity was measured in the presence of different concentrations of acetyl-CoA (FIG. 6). […] The effect of acetyl-CoA on citrate synthase itself was studied also.
# [2] = biological target: T1, Corynebacterium glutamicum ATCC 21253 phosphoenol pyruvate carboxylase (PEPC) (Corynebacterium glutamicum, UniProt P12880); experiment: Phosphoenol pyruvate carboxylase assay (permeabilized cells), ATCC 21253; type: biochemical; details: no concentration stated
# T1 sequence (P12880 1-919): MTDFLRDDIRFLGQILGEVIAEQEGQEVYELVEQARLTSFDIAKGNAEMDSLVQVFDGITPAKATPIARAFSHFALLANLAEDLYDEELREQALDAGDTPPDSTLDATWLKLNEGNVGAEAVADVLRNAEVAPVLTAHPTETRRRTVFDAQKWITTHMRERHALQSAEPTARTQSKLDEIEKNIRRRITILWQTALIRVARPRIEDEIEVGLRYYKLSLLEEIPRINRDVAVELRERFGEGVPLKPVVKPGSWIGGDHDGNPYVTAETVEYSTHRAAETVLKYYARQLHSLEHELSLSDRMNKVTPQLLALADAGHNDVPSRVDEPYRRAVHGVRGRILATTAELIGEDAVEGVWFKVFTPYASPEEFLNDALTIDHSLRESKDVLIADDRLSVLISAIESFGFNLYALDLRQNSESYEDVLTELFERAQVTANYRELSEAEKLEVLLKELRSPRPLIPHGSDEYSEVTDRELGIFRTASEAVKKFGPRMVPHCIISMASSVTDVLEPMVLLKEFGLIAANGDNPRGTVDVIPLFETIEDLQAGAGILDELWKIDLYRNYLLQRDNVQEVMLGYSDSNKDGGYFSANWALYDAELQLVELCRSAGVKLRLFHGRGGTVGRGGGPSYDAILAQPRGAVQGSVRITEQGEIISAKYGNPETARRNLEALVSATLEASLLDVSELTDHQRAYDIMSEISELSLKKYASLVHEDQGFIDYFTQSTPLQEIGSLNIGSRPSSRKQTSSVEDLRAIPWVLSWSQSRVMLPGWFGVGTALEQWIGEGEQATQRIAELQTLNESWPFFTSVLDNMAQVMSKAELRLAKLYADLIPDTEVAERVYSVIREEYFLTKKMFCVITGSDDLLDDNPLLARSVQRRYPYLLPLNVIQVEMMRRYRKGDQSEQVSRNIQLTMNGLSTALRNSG
# Method: as §1
# For determination of phosphoenol pyruvate carboxylase activity, the assay mixture contained 10 mM phosphoenol pyruvate, 14 mM KHCO3, 4 mM MgCl2, 50 μmole acetyl-CoA, 0.3 mg bovine serum albumin, 0.055 U citrate synthase and 50 mM sodium phosphate buffer ([pH 7.5] containing 0.1 mg 5,5′-Dithio-bis(2-nitrobenzoic acid) (DTNB)) in a final volume of 1 ml. The reaction was carried out in the same conditions described for the pyruvate carboxylase assay.
# Aspartate inhibits phosphoenol pyruvate carboxylase (PEPC) activity. To determine the effect of aspartate on the activity of pyruvate carboxylase, aspartate was added at different concentrations in the spectrophotometer cuvette and enzyme activities were measured. […]
compound,measurement,setting,value
"N[C@@H](CC(=O)O)C(=O)O [aspartate, aspartic acid]",effect of aspartate on pyruvate carboxylase activity,[1]; 0-30 mM aspartate,activated
same,effect of aspartate on pyruvate carboxylase activity,[1]; 30-100 mM aspartate,inhibited
same,inhibition of PEPC by aspartate,[2],strongly inhibited
